Experiments:
Assay in all cases: relative viability (nuclei count vs DMSO), 5 days (fraction); higher = more cells survive
[1] = tested on: NCI-H1734
Outline: (§1)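 Lung cancer cell lines, seeded in 1536-well plates, were treated the following day by pin tool with a single drug or with five library-drug doses (not always all listed) in √10 steps on top of a fixed anchor-drug dose. Cells were fixed and nuclei stained in one step after 5 days, and nuclei were counted. Relative viability is the nuclei count for treated wells divided by that for vehicle wells, reported as medians of duplicate plates.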

[2] = tested on: CAL-12T
Outline: as §1

[3] = tested on: LC-2-ad
Outline: as §1

[4] = tested on: H3255
Outline: as §1

[5] = tested on: HCC-366
Outline: as §1

[6] = tested on: NCI-H1915
Outline: as §1

[7] = tested on: NCI-H2347
Outline: as §1

[8] = tested on: HARA
Outline: as §1

[9] = tested on: NCI-H838
Outline: as §1

[10] = tested on: ABC-1
Outline: as §1

[11] = tested on: RERF-LC-KJ
Outline: as §1

[12] = tested on: HCC-15
Outline: as §1

[13] = tested on: COR-L 105
Outline: as §1

[14] = tested on: LU99A
Outline: as §1

[15] = tested on: NCI-H460
Outline: as §1

[16] = tested on: PC-14
Outline: as §1

[17] = tested on: NCI-H650
Outline: as §1

[18] = tested on: NCI-H727
Outline: as §1

[19] = tested on: SW 900
Outline: as §1

[20] = tested on: NCI-H1666
Outline: as §1

[21] = tested on: NCI-H1944
Outline: as §1

[22] = tested on: NCI-H1437
Outline: as §1

`C=C1C(=O)O[C@@H](CCCCCCCC)[C@@H]1C(=O)O` [C-75] + Cc1nc(Nc2ncc(C(=O)Nc3c(C)cccc3Cl)s2)cc(N2CCN(CCO)CC2)n1 [Dasatinib] (partner 0.075 µM) gave a relative viability ([1]; first compound 0.08 µM) of 0.525, a relative viability ([1]; first compound 0.253 µM) of 0.415 and a relative viability ([1]; first compound 0.8 µM) of 0.465. The relative viability ([1]; first compound 2.53 µM) was 0.351, the relative viability ([1]; first compound 8 µM) was 0.337 and the relative viability ([2]; first compound 0.08 µM) was 0.391. The relative viability ([2]; first compound 0.253 µM) was 0.393, the relative viability ([2]; first compound 0.8 µM) was 0.432 and the relative viability ([2]; first compound 2.53 µM) was 0.317. For the same compound, the relative viability ([2]; first compound 8 µM) was 0.303, the relative viability ([3]; first compound 0.08 µM) was 0.491 and the relative viability ([3]; first compound 0.253 µM) was 0.521. The relative viability ([3]; first compound 0.8 µM) was 0.468, the relative viability ([3]; first compound 2.53 µM) was 0.455 and the relative viability ([3]; first compound 8 µM) was 0.4. For the same compound, the relative viability ([4]; first compound 0.08 µM) was 0.382, the relative viability ([4]; first compound 0.253 µM) was 0.371 and the relative viability ([4]; first compound 0.8 µM) was 0.337. The relative viability ([4]; first compound 2.53 µM) was 0.327, the relative viability ([4]; first compound 8 µM) was 0.437 and the relative viability ([5]; first compound 0.08 µM) was 0.744. For the same compound, the relative viability ([5]; first compound 0.253 µM) was 0.623, the relative viability ([5]; first compound 0.8 µM) was 0.605 and the relative viability ([5]; first compound 8 µM) was 0.443. The relative viability ([6]; first compound 0.08 µM) was 0.343, the relative viability ([6]; first compound 0.253 µM) was 0.304 and the relative viability ([6]; first compound 0.8 µM) was 0.311. The relative viability ([6]; first compound 2.53 µM) was 0.289, the relative viability ([6]; first compound 8 µM) was 0.383 and the relative viability ([7]; first compound 0.08 µM) was 0.367. It also gave a relative viability ([7]; first compound 0.253 µM) of 0.448, a relative viability ([7]; first compound 0.8 µM) of 0.25 and a relative viability ([7]; first compound 8 µM) of 0.32. The relative viability ([8]; first compound 0.08 µM) was 0.257, the relative viability ([8]; first compound 0.253 µM) was 0.241 and the relative viability ([8]; first compound 0.8 µM) was 0.239. It also gave a relative viability ([8]; first compound 2.53 µM) of 0.178, a relative viability ([8]; first compound 8 µM) of 0.298 and a relative viability ([9]; first compound 0.08 µM) of 0.242. It also gave a relative viability ([9]; first compound 0.253 µM) of 0.239, a relative viability ([9]; first compound 0.8 µM) of 0.274 and a relative viability ([9]; first compound 2.53 µM) of 0.26. For the same compound, the relative viability ([9]; first compound 8 µM) was 0.268, the relative viability ([10]; first compound 0.08 µM) was 0.729 and the relative viability ([10]; first compound 0.253 µM) was 0.613. It also gave a relative viability ([10]; first compound 0.8 µM) of 0.566, a relative viability ([10]; first compound 2.53 µM) of 0.585 and a relative viability ([10]; first compound 8 µM) of 0.388. It also gave a relative viability ([11]; first compound 0.08 µM) of 0.917, a relative viability ([11]; first compound 0.253 µM) of 0.901 and a relative viability ([11]; first compound 0.8 µM) of 0.819. For the same compound, the relative viability ([11]; first compound 2.53 µM) was 0.682, the relative viability ([11]; first compound 8 µM) was 0.798 and the relative viability ([12]; first compound 0.08 µM) was 0.644. It also gave a relative viability ([12]; first compound 0.253 µM) of 0.571, a relative viability ([12]; first compound 0.8 µM) of 0.602 and a relative viability ([12]; first compound 2.53 µM) of 0.498. For the same compound, the relative viability ([12]; first compound 8 µM) was 0.528, the relative viability ([13]; first compound 0.08 µM) was 0.401 and the relative viability ([13]; first compound 0.253 µM) was 0.243. For the same compound, the relative viability ([13]; first compound 0.8 µM) was 0.358, the relative viability ([13]; first compound 2.53 µM) was 0.338 and the relative viability ([13]; first compound 8 µM) was 0.303. The relative viability ([14]; first compound 0.08 µM) was 0.597, the relative viability ([14]; first compound 0.253 µM) was 0.558 and the relative viability ([14]; first compound 0.8 µM) was 0.549. For the same compound, the relative viability ([14]; first compound 2.53 µM) was 0.495, the relative viability ([14]; first compound 8 µM) was 0.38 and the relative viability ([15]; first compound 0.08 µM) was 0.592. For the same compound, the relative viability ([15]; first compound 0.253 µM) was 0.364, the relative viability ([15]; first compound 0.8 µM) was 0.415 and the relative viability ([15]; first compound 2.53 µM) was 0.258. The relative viability ([15]; first compound 8 µM) was 0.383, the relative viability ([16]; first compound 0.08 µM) was 0.292 and the relative viability ([16]; first compound 0.253 µM) was 0.227. It also gave a relative viability ([16]; first compound 0.8 µM) of 0.27, a relative viability ([16]; first compound 2.53 µM) of 0.272 and a relative viability ([16]; first compound 8 µM) of 0.222. It also gave a relative viability ([17]; first compound 0.08 µM) of 0.469, a relative viability ([17]; first compound 0.253 µM) of 0.328 and a relative viability ([17]; first compound 0.8 µM) of 0.383. The relative viability ([17]; first compound 2.53 µM) was 0.358, the relative viability ([17]; first compound 8 µM) was 0.398 and the relative viability ([18]; first compound 0.08 µM) was 0.406. For the same compound, the relative viability ([18]; first compound 0.253 µM) was 0.494, the relative viability ([18]; first compound 0.8 µM) was 0.417 and the relative viability ([18]; first compound 8 µM) was 0.305. The relative viability ([19]; first compound 0.08 µM) was 0.531, the relative viability ([19]; first compound 0.253 µM) was 0.796 and the relative viability ([19]; first compound 0.8 µM) was 0.829. The relative viability ([19]; first compound 2.53 µM) was 0.548, the relative viability ([19]; first compound 8 µM) was 0.449 and the relative viability ([20]; first compound 0.08 µM) was 0.836. It also gave a relative viability ([20]; first compound 0.253 µM) of 0.779, a relative viability ([20]; first compound 0.8 µM) of 0.74 and a relative viability ([20]; first compound 2.53 µM) of 0.719. The relative viability ([20]; first compound 8 µM) was 0.711, the relative viability ([21]; first compound 0.08 µM) was 0.234 and the relative viability ([21]; first compound 0.253 µM) was 0.169. The relative viability ([21]; first compound 0.8 µM) was 0.193, the relative viability ([21]; first compound 8 µM) was 0.225 and the relative viability ([22]; first compound 0.08 µM) was 0.4. For the same compound, the relative viability ([22]; first compound 0.253 µM) was 0.381, the relative viability ([22]; first compound 0.8 µM) was 0.367 and the relative viability ([22]; first compound 2.53 µM) was 0.298. The relative viability ([22]; first compound 8 µM) was 0.458.
